The text below walks through data of patent US5380763A, “Topical composition for treating acne vulgaris” (Takasago International Corporation, priority 1992, dated 1995).

The subject of one experiment is Propionibacterium acnes. Briefly: Minimum inhibitory concentration (MIC) against Propionibacterium acnes (Test Example 1). The note with it: Cutibacterium acnes. The format is cell-based, Propionibacterium acnes (ATCC 6919). The procedure:
The minimum inhibitory concentration (MIC) of 1-pentadecanol against Propionibacterium acnes was determined as follows.
In 1 l of purified water was dissolved 59.0 g of a GAM (Gifu anaerobic medium) bouillon medium (Nissui Pharmaceutical Co., Ltd.) and 1-pentadecanol was added to the bouillon solution to give a concentration of 100 μg/ml. The mixture was stepwise diluted two times with the same medium, followed by sterilization.
A 10 ml aliquot of the mixture was put in a test tube and inoculated with 0.1 ml of the culture of Propionibacterium acnes (ATCC 6919) which had been precultured so as to give a cell density of 1×10^8 cells/ml. The system was static-cultured under anaerobic conditions for 48 hours, and the turbidity was measured at a wavelength of 660 nm to obtain MIC (μg/ml).
For comparison, MIC of 1-dodecanol and 1-hexadecanol, which have relatively strong antibacterial activity on several bacteria and are generally used as a base of cosmetics, against Propionibacterium acnes was obtained in the same manner.

In the next experiment the test system is Staphylococcus aureaus. Conditions: among 1-alkanols having 10 to 16 carbon atoms; Kato et al. (1980); cited from earlier work.
The mark [1] stands for this setting: GAM bouillon medium, anaerobic static culture 48 hours, turbidity at 660 nm, read-out: MIC.

Values after ≈ are worked out from the molar mass of the structure shown. Where two headings read alike, the source gives them in different places.

Regarding `CCCCCCCCCCCCO` [1-dodecanol], in the experiment with Propionibacterium acnes (setting [1]), the MIC worked out at 25 µg/mL (≈ 134 µM). Further, in the experiment with Staphylococcus aureaus, the “effectiveness on Staphylococcus aureaus” value was “the most effective”.
In the experiment on Propionibacterium acnes (48 h), `CCCCCCCCCCCCCCCO` [1-pentadecanol] showed an MIC of 3.13 µg/mL (≈ 13.7 µM).
Consider `CCCCCCCCCCCCCCCCO` [1-hexadecanol], for which the MIC in the experiment on Propionibacterium acnes (setting [1]) is above 200 µg/mL.

As usually defined, the MIC is the lowest concentration found to suppress growth.
